{"source": "paper doi:10.1101/2025.08.21.671593v1", "about": "“Suppression and modulation mechanism underlying the flavonoid-induced inhibition of fibrillation of α-synuclein” (biorxiv, 2025)", "target": "T1, α-synuclein (α-Syn, αSyn), monomeric (Homo sapiens, UniProt P37840)", "T1 construct": "gene SNCA; purified, unfolded monomer", "assay": "intrinsic tyrosine fluorescence quenching, modified Stern-Volmer plot", "conditions": "37 °C; protein 0.3 mg/mL, Cyanidin 2-30 μM; about 1:1; double-log; printed '8.4×10[5]'; paper calls it weak binding (mM range), which conflicts with this value", "data": [{"smiles": "Oc1cc(O)c2cc(O)c(-c3ccc(O)c(O)c3)[o+]c2c1", "note": "[Cyanidin]", "values": [{"measurement": "Ka", "value": 840000, "unit": "M⁻¹"}]}]}
